According to patent USRE40086E1, “Method for treating bacterial infection with novel 7-substituted-9-substituted amino 6-demethyl-6-deoxytetracyclines” (Wyeth Holdings Corporation, priority 1991, dated 2008):
Values after ≈ are worked out from the molar mass of the structure shown.

Legend:
Format in all cases: cell-based
E. coli J3272 TetD = test: MIC, agar dilution (Table IA); settings: unit assumed
[1] = system: S. aureus ATCC 29213 (Sensitive); test: MIC, agar dilution; settings: for Antibacterial activity (MIC): S. aureus ATCC 29213, Table IA, unit assumed; for MIC: S. aureus ATCC 29213 (Sensitive)
S. mariescens FDOR 8733 = test: MIC, agar dilution (Table IA); settings: unit assumed
[2] = system: S. aureus UBMS 88-5 (tetM); test: MIC, agar dilution; settings: for Antibacterial activity (MIC): S. aureus UBMS 88-5 TetM, Table IA, unit assumed; for MIC: S. aureus UBMS 88-5 (tetM)
E. coli UBMS 90-5 = test: MIC, agar dilution (Table IA); settings: unit assumed
S. aureus NEMC 8769/89-4 = test: MIC, agar dilution (Table IA); settings: unit assumed
[3] = system: S. aureus Smith (Sensitive); test: MIC, agar dilution; settings: for Antibacterial activity (MIC): S. aureus SMITH (MP), Table IA, unit assumed; for MIC: S. aureus Smith (Sensitive)
E. coli BAJ9003 = test: MIC, agar dilution (Table IA); settings: unit assumed
[4] = system: S. haemolyticus AVAH 88-3; test: MIC, agar dilution; settings: for Antibacterial activity (MIC): S. hemolyticus AVHAH 88-3, Table IA, unit assumed; for MIC: S. haemolyticus AVAH 88-3
E. coli #311 (MP) = test: MIC, agar dilution (Table IA); settings: unit assumed
[5] = system: S. aureus UBMS 90-3 (Sensitive); test: MIC, agar dilution; settings: for Antibacterial activity (MIC): S. aureus UBMS 90-3, Table IA, unit assumed; for MIC: S. aureus UBMS 90-3 (Sensitive)
[6] = system: S. aureus UBMS 88-4 (Sensitive); test: MIC, agar dilution; settings: for Antibacterial activity (MIC): S. aureus UBMS 88-4, Table IA, unit assumed; for MIC: S. aureus UBMS 88-4 (Sensitive)
E. coli UBMS 89-1 (tetM) = test: MIC, agar dilution; settings: for Antibacterial activity (MIC): E. coli UBMS 89-1 TetM, Table IA, unit assumed; for MIC: E. coli UBMS 89-1 (tetM)
[7] = system: S. aureus UBMS 90-1 (tetM); test: MIC, agar dilution; settings: for Antibacterial activity (MIC): S. aureus UBMS 90-1 TetM, Table IA, unit assumed; for MIC: S. aureus UBMS 90-1 (tetM)
E. coli J3272 Tet sens. = test: MIC, agar dilution (Table IA); settings: unit assumed
[8] = system: S. aureus IVES 1983 (meth. resistant); test: MIC, agar dilution; settings: for Antibacterial activity (MIC): S. aureus IVES 1983, Table IA, unit assumed; for MIC: S. aureus IVES 1983 (meth. resistant)
E. coli PRP1 TetA = test: MIC, agar dilution (Table IA); settings: unit assumed
E. coli J3272 TetC = test: MIC, agar dilution (Table IA); settings: unit assumed
S. aureus ROSE (MP) = test: MIC, agar dilution (Table IA); settings: unit assumed
[9] = system: Ps. acruginosa ATCC 27853; test: MIC, agar dilution (Table IA); settings: unit assumed
[10] = system: S. aureus IVES 2943 (meth. resistant); test: MIC, agar dilution; settings: for Antibacterial activity (MIC): S. aureus IVES 2943, Table IA, unit assumed; for MIC: S. aureus IVES 2943 (meth. resistant)
[11] = system: E. coli UBMS 89-2 (Sensitive); test: MIC, agar dilution; settings: for Antibacterial activity (MIC): E. coli UBMS 89-2 Tet Sens., Table IA, unit assumed; for MIC: E. coli UBMS 89-2 (Sensitive)
E. faecalis ATCC 29212 = test: MIC, agar dilution; settings: E. faecalis ATCC 29212; for Antibacterial activity (MIC): Table IA, unit assumed
E. coli UBMS 88-1 (tetB) = test: MIC, agar dilution; settings: for Antibacterial activity (MIC): E. coli UBMS 88-1 TetB, Table IA, unit assumed; for MIC: E. coli UBMS 88-1 (tetB)
[12] = system: S. aureus UBMS 90-2 (tetM); test: MIC, agar dilution; settings: for Antibacterial activity (MIC): S. aureus UBMS 90-2 TetM, Table IA, unit assumed; for MIC: S. aureus UBMS 90-2 (tetM)
[13] = system: X. maltophilia NEMC 87210; test: MIC, agar dilution (Table IA); settings: unit assumed
E. coli J2175 = test: MIC, agar dilution (Table IA); settings: unit assumed
E. coli MC4100 TetB = test: MIC, agar dilution (Table IA); settings: unit assumed
E. faecalis 12201 = test: MIC, agar dilution; settings: for Antibacterial activity (MIC): Enterococcus 12201, Table IA, unit assumed; for MIC: E. faecalis 12201
[14] = system: S. aureus UBMS 88-7 (tetK); test: MIC, agar dilution; settings: for Antibacterial activity (MIC): S. aureus UBMS 88-7 TetK, Table IA, unit assumed; for MIC: S. aureus UBMS 88-7 (tetK)
E. coli ATCC 25922 = test: MIC, agar dilution; settings: E. coli ATCC 25922; for Antibacterial activity (MIC): Table IA, unit assumed
[15] = system: E. coli UBMS 88-2 (Sensitive); test: MIC, agar dilution; settings: E. coli UBMS 88-2 (Sensitive)

CN(C)c1cc(NC(=O)CBr)c(O)c2c1CC1CC3[C@H](N(C)C)C(O)=C(C(N)=O)C(=O)[C@@]3(O)C(O)=C1C2=O.Cl.Cl (stereo partly drawn) [III, [4S-(4alpha,12aalpha)]-9-[(Bromoacetyl)amino)-4,7-bis(dimethylamino)-1,4,4a,5,5a,6,11,12a-octahydro-3,10,12,12a-tetrahydroxy-1,11-dioxo-2-naphthacenecarboxamide dihydrochloride]
Antibacterial activity (MIC) (E. coli J3272 TetD): 32 mg/L | Antibacterial activity (MIC) [1]: 0.5 mg/L | Antibacterial activity (MIC) (S. mariescens FDOR 8733): > 32 mg/L | Antibacterial activity (MIC) [2]: 1 mg/L | Antibacterial activity (MIC) (E. coli UBMS 90-5): 16 mg/L | Antibacterial activity (MIC) (S. aureus NEMC 8769/89-4): 0.12 mg/L | Antibacterial activity (MIC) [3]: 0.5 mg/L | Antibacterial activity (MIC) (E. coli BAJ9003): 0.25 mg/L | Antibacterial activity (MIC) [4]: 2 mg/L | Antibacterial activity (MIC) (E. coli #311 (MP)): 8 mg/L | Antibacterial activity (MIC) [5]: 0.5 mg/L | Antibacterial activity (MIC) [6]: 0.5 mg/L | Antibacterial activity (MIC) (E. coli UBMS 89-1 (tetM)): 4 mg/L | Antibacterial activity (MIC) [7]: 1 mg/L | Antibacterial activity (MIC) (E. coli J3272 Tet sens.): 16 mg/L | Antibacterial activity (MIC) [8]: 4 mg/L | Antibacterial activity (MIC) (E. coli PRP1 TetA): > 32 mg/L | Antibacterial activity (MIC) (E. coli J3272 TetC): > 32 mg/L | Antibacterial activity (MIC) (S. aureus ROSE (MP)): 8 mg/L | Antibacterial activity (MIC) [9]: > 32 mg/L | Antibacterial activity (MIC) [10]: 4 mg/L | Antibacterial activity (MIC) [11]: 32 mg/L | Antibacterial activity (MIC) (E. faecalis ATCC 29212): 0.5 mg/L | Antibacterial activity (MIC) (E. coli UBMS 88-1 (tetB)): > 32 mg/L | Antibacterial activity (MIC) [12]: 0.5 mg/L | Antibacterial activity (MIC) [13]: 4 mg/L | Antibacterial activity (MIC) (E. coli J2175): 32 mg/L | Antibacterial activity (MIC) (E. coli MC4100 TetB): > 32 mg/L | Antibacterial activity (MIC) (E. faecalis 12201): 1 mg/L | Antibacterial activity (MIC) [14]: 2 mg/L | Antibacterial activity (MIC) (E. coli ATCC 25922): 16 mg/L

CN(C)c1ccc(C(=O)Nc2cc(N(C)C)c3c(c2O)C(=O)C2=C(O)[C@]4(O)C(=O)C(C(N)=O)=C(O)[C@@H](N(C)C)[C@@H]4C[C@@H]2C3)cc1 [W, 7-(Dimethylamino)-9-[[(4-dimethylamino)benzoyl)amino)-6-demethyl-6-deoxytetracycline]
MIC [15]: >32 mg/L | MIC [1]: 2 mg/L (≈ 3.23 µM) | MIC [2]: 32 mg/L (≈ 51.6 µM) | MIC [3]: 4 mg/L (≈ 6.45 µM) | MIC [4]: 16 mg/L (≈ 25.8 µM) | MIC [5]: 8 mg/L (≈ 12.9 µM) | MIC [6]: 8 mg/L (≈ 12.9 µM) | MIC (E. coli UBMS 89-1 (tetM)): >32 mg/L | MIC [7]: 16 mg/L (≈ 25.8 µM) | MIC [8]: 8 mg/L (≈ 12.9 µM) | MIC [10]: 8 mg/L (≈ 12.9 µM) | MIC [11]: >32 mg/L | MIC (E. faecalis ATCC 29212): 8 mg/L (≈ 12.9 µM) | MIC (E. coli UBMS 88-1 (tetB)): >32 mg/L | MIC [12]: 8 mg/L (≈ 12.9 µM) | MIC (E. faecalis 12201): 16 mg/L (≈ 25.8 µM) | MIC [14]: 16 mg/L (≈ 25.8 µM) | MIC (E. coli ATCC 25922): >32 mg/L

CN(C)c1cc(NC(=O)CN2CCOCC2)c(O)c2c1CC1CC3[C@H](N(C)C)C(O)=C(C(N)=O)C(=O)[C@@]3(O)C(O)=C1C2=O.Cl.Cl (stereo partly drawn) [NN, [7S-(7alpha,10aalpha)]-N-[9-(Aminocarbonyl)-4,7-bis(dimethylamino)-5,5a,6,6a,7,10,10a,12-octahydro-1,8,10a,11-tetrahydroxy-10,12-dioxo-2-naphthacenyl)-4-morpholineacetamide dihydrochloride]
Antibacterial activity (MIC) (E. coli J3272 TetD): 32 mg/L | Antibacterial activity (MIC) [1]: 2 mg/L | Antibacterial activity (MIC) (S. mariescens FDOR 8733): > 32 mg/L | Antibacterial activity (MIC) [2]: 4 mg/L | Antibacterial activity (MIC) (E. coli UBMS 90-5): > 32 mg/L | Antibacterial activity (MIC) (S. aureus NEMC 8769/89-4): 0.5 mg/L | Antibacterial activity (MIC) [3]: 2 mg/L | Antibacterial activity (MIC) (E. coli BAJ9003): 0.5 mg/L | Antibacterial activity (MIC) [4]: 32 mg/L | Antibacterial activity (MIC) (E. coli #311 (MP)): > 32 mg/L | Antibacterial activity (MIC) [5]: 2 mg/L | Antibacterial activity (MIC) [6]: 2 mg/L | Antibacterial activity (MIC) (E. coli UBMS 89-1 (tetM)): 32 mg/L | Antibacterial activity (MIC) [7]: 4 mg/L | Antibacterial activity (MIC) (E. coli J3272 Tet sens.): > 32 mg/L | Antibacterial activity (MIC) [8]: > 32 mg/L | Antibacterial activity (MIC) (E. coli PRP1 TetA): > 32 mg/L | Antibacterial activity (MIC) (E. coli J3272 TetC): > 32 mg/L | Antibacterial activity (MIC) (S. aureus ROSE (MP)): > 32 mg/L | Antibacterial activity (MIC) [9]: > 32 mg/L | Antibacterial activity (MIC) [10]: > 32 mg/L | Antibacterial activity (MIC) [11]: > 32 mg/L | Antibacterial activity (MIC) (E. faecalis ATCC 29212): 2 mg/L | Antibacterial activity (MIC) (E. coli UBMS 88-1 (tetB)): > 32 mg/L | Antibacterial activity (MIC) [12]: 2 mg/L | Antibacterial activity (MIC) [13]: 32 mg/L | Antibacterial activity (MIC) (E. coli J2175): > 32 mg/L | Antibacterial activity (MIC) (E. coli MC4100 TetB): > 32 mg/L | Antibacterial activity (MIC) (E. faecalis 12201): 2 mg/L | Antibacterial activity (MIC) [14]: 32 mg/L | Antibacterial activity (MIC) (E. coli ATCC 25922): > 32 mg/L

CN(C)c1cc(NC(=O)c2ccco2)c(O)c2c1CC1CC3C(N(C)C)C(O)=C(C(N)=O)C(=O)C3(O)C(O)=C1C2=O (centres unmarked) [Y, 7-(Dimethylamino)-9-((2-furanylcarbonyl)amino)-6-demethyl-6-deoxytetracycline]
MIC [15]: >32 mg/L | MIC [1]: 0.5 mg/L (≈ 0.883 µM) | MIC [2]: 16 mg/L (≈ 28.2 µM) | MIC [3]: 2 mg/L (≈ 3.53 µM) | MIC [4]: >32 mg/L | MIC [5]: 2 mg/L (≈ 3.53 µM) | MIC [6]: 4 mg/L (≈ 7.06 µM) | MIC (E. coli UBMS 89-1 (tetM)): >32 mg/L | MIC [7]: 32 mg/L (≈ 56.5 µM) | MIC [8]: >32 mg/L | MIC [10]: >32 mg/L | MIC [11]: >32 mg/L | MIC (E. faecalis ATCC 29212): 8 mg/L (≈ 14.1 µM) | MIC (E. coli UBMS 88-1 (tetB)): >32 mg/L | MIC [12]: 8 mg/L (≈ 14.1 µM) | MIC (E. faecalis 12201): 32 mg/L (≈ 56.5 µM) | MIC [14]: >32 mg/L | MIC (E. coli ATCC 25922): >32 mg/L

CN(C)c1cc(NC(=O)c2ccc([N+](=O)[O-])cc2)c(O)c2c1CC1CC3C(N(C)C)C(O)=C(C(N)=O)C(=O)C3(O)C(O)=C1C2=O (centres unmarked) [V, 7-(Dimethylamino)-9-[(4-nitrobenzoyl)amino]-6-demethyl-6-deoxytetracycline]
MIC [15]: >32 mg/L | MIC [1]: 0.25 mg/L (≈ 0.402 µM) | MIC [2]: 2 mg/L (≈ 3.22 µM) | MIC [3]: 0.5 mg/L (≈ 0.804 µM) | MIC [4]: 4 mg/L (≈ 6.43 µM) | MIC [5]: 0.5 mg/L (≈ 0.804 µM) | MIC [6]: 2 mg/L (≈ 3.22 µM) | MIC (E. coli UBMS 89-1 (tetM)): >32 mg/L | MIC [7]: 2 mg/L (≈ 3.22 µM) | MIC [8]: 8 mg/L (≈ 12.9 µM) | MIC [10]: 4 mg/L (≈ 6.43 µM) | MIC [11]: >32 mg/L | MIC (E. faecalis ATCC 29212): 4 mg/L (≈ 6.43 µM) | MIC (E. coli UBMS 88-1 (tetB)): >32 mg/L | MIC [12]: 1 mg/L (≈ 1.61 µM) | MIC (E. faecalis 12201): 4 mg/L (≈ 6.43 µM) | MIC [14]: 4 mg/L (≈ 6.43 µM) | MIC (E. coli ATCC 25922): >32 mg/L
